In the OligoGym collection one finds calcium oscillation score data, which are given here for 68 sequences.

Bases are written 5' to 3'; sugars and linkages follow in the same order, as letters with counts (s phosphorothioate, o phosphodiester; PS: all linkages phosphorothioate). The collection does not say whether C is 5-methylated. l = locked nucleic acid (LNA); d = 2'-deoxy (DNA)

The data set addresses Tau. Briefly: rat primary cortical neurons, FLIPR, 25 uM ASO.
For the sequence “TCACCACTTTAATCTGCC (sugars l2 d14 l2, PS)”, the calcium oscillation score is 69 % of control.

In the case of “TTTACCCATCTTAATTCATT (sugars l4 d14 l2, PS)”, the calcium oscillation score was 78.1 % of control.

On to “GTCCCCCAAAATATCTC (sugars l3 d12 l2, PS)”, for which the calcium oscillation score was 72.1 % of control.

Take TAACCAATTAACCGAA (sugars l3 d10 l3, PS): the calcium oscillation score was 179 % of control.

With “AAAATATCCTTACCATCCT (sugars l2 d13 l4, PS)”, the calcium oscillation score is 73.9 % of control.

In the case of “CCTTACTTTCTACTCAAT (sugars l2 d12 l4, PS)”, the calcium oscillation score is 62.1 % of control.

As for ACCCCGAATTTACACC (sugars l3 d11 l2, PS), the calcium oscillation score is 97.5 % of control.

In the case of “CATTCCCTCCAGAACCATCA (sugars l3 d14 l3, PS)”, the calcium oscillation score was 34.2 % of control.

On to ACCAATTAACCGAACT (sugars l3 d10 l3, PS), for which the calcium oscillation score was 159 % of control.

As to “CCTCACTTTACACATTAAAT (sugars l4 d14 l2, PS)”, the calcium oscillation score is 64.1 % of control.

As to TCCAATACTAGATCTA (sugars l4 d9 l3, PS), the calcium oscillation score was 71.9 % of control.

For “ACCTTGCTCAGGTCAACTGG (sugars l3 d14 l3, PS)”, the calcium oscillation score is 2.59 % of control.

Take ATAAATTTGAACCCCT (sugars l3 d9 l4, PS): the calcium oscillation score was 49.7 % of control.

On to CCTAATGAGCCACACT (sugars l3 d10 l3, PS), for which the calcium oscillation score is 92.6 % of control.

In the case of “CAGCTCTTCCATAAGCAGGG (sugars l3 d14 l3, PS)”, the calcium oscillation score was 60.6 % of control.

Consider “TCCCAACTCTTTGAACAC (sugars l3 d13 l2, PS)”, for which the calcium oscillation score was 83.5 % of control.

GTCCCGTCTTTGCTTT (sugars l3 d10 l3, PS): the calcium oscillation score was 31.3 % of control.

Turning to “AATAGATCTTTCCCCTCC (sugars l2 d13 l3, PS)”, the calcium oscillation score was 76.7 % of control.

With “ACCCTTGATCATATTTGTGG (sugars l3 d14 l3, PS)”, the calcium oscillation score was 30.9 % of control.

In the case of “CTTTATTTCCAAATTCACTT (sugars l2 d1 l2 d12 l3, PS)”, the calcium oscillation score was 112 % of control.

As to “TCTTCTAATATCCTTGC (sugars l3 d11 l3, PS)”, the calcium oscillation score is 55.7 % of control.

Take TCCTCCATTGTAACTA (sugars l4 d10 l2, PS): the calcium oscillation score is 85.3 % of control.

Turning to “GCAACAATCCAACCACT (sugars l3 d12 l2, PS)”, the calcium oscillation score is 65.4 % of control.

Consider “CCATCAGTCTTATCTCC (sugars l1 d14 l2, PS)”, for which the calcium oscillation score was 52.9 % of control.

“CTTTATTTCCAAATTCACT (sugars l4 d10 l5, PS)”: the calcium oscillation score is 108 % of control.

On to ACATGCTAATCAATAC (sugars l4 d8 l4, PS), for which the calcium oscillation score is 57.8 % of control.

As to TGATCTTAGGCTGGC (sugars l3 d9 l3, PS), the calcium oscillation score was 44.1 % of control.

TTCAGGTCTGGCATGG (sugars l3 d10 l3, PS): the calcium oscillation score was 1.9 % of control.

On to “CGCCAGGGACGTGGGTGATA (sugars l3 d14 l3, PS)”, for which the calcium oscillation score is 0 % of control.

On to CATGTCGATGCTGCCG (sugars l3 d10 l3, PS), for which the calcium oscillation score is 67.3 % of control.

Take “TTAACTCATCAACACCTTTT (sugars l4 d13 l3, PS)”: the calcium oscillation score was 59 % of control.

Take “CAGTCTTTATTAACACT (sugars l3 d10 l4, PS)”: the calcium oscillation score is 50.7 % of control.

In the case of “AGTTCCCACAATTCCTA (sugars l2 d13 l2, PS)”, the calcium oscillation score is 38.7 % of control.

Take “CCCACCCATCAATTTGGAAA (sugars l3 d14 l3, PS)”: the calcium oscillation score is 11.7 % of control.

“TTATTTCCAAATTCACTTTT (sugars llddlldddddddddldlll, PS)”: the calcium oscillation score was 123 % of control.

With GCAAACCACTCTTATT (sugars l4 d10 l2, PS), the calcium oscillation score is 95.4 % of control.

For the sequence “CTTTATTTCCAAATTCACTT (sugars l2 d2 l1 d12 l3, PS)”, the calcium oscillation score was 108 % of control.

“ATTCATTTTACTTTACTTT (sugars l4 d11 l4, PS)”: the calcium oscillation score is 64.6 % of control.

Consider “TATTGAACTCACCCACT (sugars l2 d11 l4, PS)”, for which the calcium oscillation score was 65.7 % of control.

For TATTGTCCAGGGACCC (sugars l3 d10 l3, PS), the calcium oscillation score is 29.9 % of control.

With “TTTCTCTCTTAACTTTATTT (sugars l4 d12 l4, PS)”, the calcium oscillation score is 90.4 % of control.

Turning to “ACCTCATTAAGATCACC (sugars l2 d11 l4, PS)”, the calcium oscillation score is 69.7 % of control.

With ACGTTGCTAAGATCCA (sugars l3 d10 l3, PS), the calcium oscillation score is 18.1 % of control.

On to “ATTTCCAAATTCACTTTTAC (sugars lldlldddddddddldldll, PS)”, for which the calcium oscillation score is 83 % of control.

In the case of CTGAAAGAGGGCAGCA (sugars l3 d10 l3, PS), the calcium oscillation score was 36.8 % of control.

For the sequence TGGATATAGTTAAGGC (sugars l3 d9 l4, PS), the calcium oscillation score is 106 % of control.

Consider “CATAGCACTTACTACTT (sugars l4 d10 l3, PS)”, for which the calcium oscillation score is 84.1 % of control.

Regarding “TTTTCAAACACACCTTCAT (sugars l3 d12 l4, PS)”, the calcium oscillation score was 80.8 % of control.

As for “TAGCCCACCCATCAATTTGG (sugars l3 d14 l3, PS)”, the calcium oscillation score was 7.77 % of control.

With “CACCCAAACTCCAAGTTC (sugars l4 d12 l2, PS)”, the calcium oscillation score is 53.9 % of control.

With “TTTTTCTCTCTTAACTTTAT (sugars l4 d12 l4, PS)”, the calcium oscillation score was 93.2 % of control.

Regarding ACTAATATTAACACTAT (sugars l4 d9 l4, PS), the calcium oscillation score was 79.5 % of control.

On to CCAGATTCCCCAACTC (sugars l2 d12 l2, PS), for which the calcium oscillation score was 73.3 % of control.

Regarding “GGGACCCAATCTTCGACTGG (sugars l3 d14 l3, PS)”, the calcium oscillation score was 0 % of control.

With “TCTTCCATCACTTCGAACTC (sugars l3 d14 l3, PS)”, the calcium oscillation score is 45.2 % of control.

As to “AGACCACATTTCCATCC (sugars l2 d13 l2, PS)”, the calcium oscillation score was 72 % of control.

“CTTGAAGTCAAGCTTCTCAG (sugars l3 d14 l3, PS)”: the calcium oscillation score was 33.2 % of control.

Turning to “CTTTATTTCCAAATTCACTT (sugars lldllddddddddddlldll, PS)”, the calcium oscillation score is 117 % of control.

With “GGGACGTGGGTGATATTGTC (sugars l3 d14 l3, PS)”, the calcium oscillation score was 0 % of control.

TGATGGATGTTGCCTA (sugars l3 d10 l3, PS): the calcium oscillation score is 29.6 % of control.

CATGATCTTAGGCT (sugars l3 d8 l3, PS): the calcium oscillation score was 25.3 % of control.

With AAGTCCCGAGCCAAAG (sugars l3 d10 l3, PS), the calcium oscillation score was 91.8 % of control.

With “GTCCACAAACCAACTCA (sugars l3 d11 l3, PS)”, the calcium oscillation score is 91.3 % of control.

As for “ATTTCCAAATTCACTTTTAC (sugars llldldddddddddldldll, PS)”, the calcium oscillation score is 123 % of control.

Turning to “TTAGACTCCTTCTTTAGGCT (sugars l3 d14 l3, PS)”, the calcium oscillation score is 26.2 % of control.

In the case of AGAGGAACGTGTGGAT (sugars l3 d10 l3, PS), the calcium oscillation score was 25.9 % of control.

For the sequence TTCCTCAGAAGGCATT (sugars l3 d10 l3, PS), the calcium oscillation score was 36.9 % of control.

“ACCAATTATCTTTAAATTCT (sugars l4 d13 l3, PS)”: the calcium oscillation score was 77 % of control.
